Data: publication PMC11783601, “Analogue-Sensitive Inhibition of Histone Demethylases Uncovers Member-Specific Function in Ribosomal Protein Synthesis” (Journal of the American Chemical Society, 2025)
“Also recorded” adds a separate entry of the source.

Assays:
[1] = target: T1, ALKBH2 (Homo sapiens, UniProt Q6NS38); test: Dot blot-based assay for ALKBH2 on genomic DNA; assay type: biochemical; settings: genomic DNA from HEK293T cells, 6 (µM): 100
T1 construct: we recombinantly expressed the catalytic domains of 12 wild type dioxygenases; 6xHis (N); made in house; host or cells: E. coli BL21 (DE3)

[2] = test system: TET2; test: MALDI-based assay for TET2 on 5-mC DNA substrate; assay type: biochemical, human; settings: MALDI-TOF, 5mC oligonucleotide
Experimental: Aliquots were kept on ice for 10 minutes before addition of 200
µM 2OG or equivalent volume of water. After 30-60 minutes incubation at 37 °C, 1 µL sample and
1 µL S-DHB matrix were spotted on a MALDI plate and monitored with Bruker FlexControl in
the reflectron positive mode and analyzed on Bruker FlexAnalysis software. Relative inhibition
was monitored via assessing percent product decrease with L-Leu NOG samples compared to no
temperature for 10 minutes.

[3] = target: T2, full-length wild type KDM4B (Homo sapiens, UniProt O94953); test: H3K9me3 Western blot of nuclear extracts of transfected HEK293T cells; assay type: cell-based; settings: n-octyl IOX1 10 μM
T2 construct: HEK293T cells were transfected with full-length wild type KDM4B-E or their respective mutants; host or cells: HEK293T
Description: (§1) KDM4B and C are structurally homologous to KDM4A, and KDM4D and E have a catalytic pocket near-identical to that of KDM4A but lack the Tudor and PHD domains known to bind trimethylated lysine in histones (Figure 1B).[11] HEK293T cells were transfected with full-length wild type KDM4B-E or their respective mutants. Western blot analysis of nuclear preparations using the H3K9me3 antibody confirmed all of the proteins to be catalytically active (Figures 4G–N and S32–S35).
(§2) KDM4A mammalian expression plasmid in CMV vector was purchased from Addgene (plasmid #24180). KDM4B mammalian expression plasmid in CMV vector was purchased from Addgene (plasmid #24181). KDM4C mammalian expression plasmid in CMV vector was purchased from Addgene (plasmid #24214). KDM4D mammalian expression plasmid in pReciever vector was purchased from Genecopoia (EX-Z0917-M06.) KDME mammalian expression plasmid in pRP-EXP was designed from Vector Builder. The KDM4A-F185A, KDM4B-F186A, KDM4C -F187A, KDM4D-F189A, and KDM4E F186A mutants were generated using Quikchange Lightening Mutagenesis Kit (Agilent) according to manufacturer’s protocol and confirmed by Sanger […]
(§3) HEK293T/17 cells (ATCC) were grown in Delbucco’s Modified Eagle Medium (DMEM) (Corning) with 10% FBS at 37 °C (Corning), 5% CO2, and 95% relative humidity in a 6-well cell culture plate. When cells reached 90% confluency, 3 µg of plasmid and 6 µg lipofectamine 2000 (Invitrogen: 11668019) were incubated with 100 µL OptiMem. After 5 minutes the plasmid and lipofectamine were combined and incubated at room temperature for 20 minutes and added to the cell culture disk. Cells were returned to the incubator to grow for 4-6 hours. This was followed by treatment of compound treatment (n-octyl IOX121,22 or a specific NOG ester) at indicated concentrations and further culture for specified time. The media was removed, and cells were washed with ice cold PBS (Corning), then trypsinized with TrpLE Express (Gibco). The trypsinization reaction was quenched with DMEM 10% FBS and cells were pelleted then washed once with ice cold PBS. The nuclear extracts were generated by first resuspending the cell pellets in 700 µL nuclear isolation buffer (15 mM Tris pH 7.5, 60 mM KCl, 15 mM NaCl, 5 mM MgCl2, 1 mM CaCl2, 1mm DTT, 2 mM Na3Van, 250 mM sucrose, 1X Pierce protease inhibitor (Thermo Fisher #PIA32955), 1 mM PMSF, 0.3% NP40 diluted to volume with MilliQ H2O) and incubated on ice for 5 minutes.23 The samples were then pelleted by centrifugation at 2000 rcf for 5 minutes.
(§4) The supernatant was removed, and the pelleted nuclei were resuspended in 200 µL Pierce IP lysis buffer (Thermo Fisher #87787) containing 1X Pierce protease inhibitor and left on ice for 5 minutes. The nuclei were then sonicated at 100% amp for 5 minutes (pulsed 1 minute “on”, 20 seconds “rest”) using a Qsonica-Q700, cuphorn sonicator. The samples were pelleted once again at 2000 rcf for 5 minutes and the supernatant containing the nuclear extracts were collected. MgCl2 (1M) solution was added to each sample give a final concentration of 6mM. […]
(§5) Prism with the corresponding bars representing the mean and standard deviation of the population.
(§6) For the time dependent imaging, cells containing the transfected KDM4A mutant were identified by their HA signal. These cells were used to create a selection which was then imposed onto the respective H3K9me3 or BrdU images. The mean signal was then measured for H3K9me3 or BrdU only within the cells expressing the KDM4A mutant. To compare changes in H3K9me3 or BrdU between trials, the quantification values were normalized to the mean signal at t=0. The normalized, mean signal and error for H3K9me3 or BrdU were then plotted in GraphPad Prism.
(§7) 21. General protocol for Western blotting
(§8) Assay samples were mixed with appropriate volume of 4X Laemmli Dye (Bio-Rad), heated at 95 °C for 5 minutes and loaded onto 4–12% Criterion™ XT Bis-Tris protein gels (Bio-Rad #3450123) or in-house prepared SDS-polyacrylamide gel and subjected to electrophoresis […]

[4] = target: T3, full-length wild type KDM4D (Homo sapiens, UniProt Q6B0I6); test: as above; assay type: cell-based
T3 construct: HEK293T cells were transfected with full-length wild type KDM4B-E or their respective mutants; host or cells: HEK293T
Description: as §1, §2, §3, §4, §5, §6, §7, §8

[5] = target: T4, full-length wild type KDM4C (Homo sapiens, UniProt Q9H3R0); test: as above; assay type: cell-based
T4 construct: HEK293T cells were transfected with full-length wild type KDM4B-E or their respective mutants; host or cells: HEK293T
Description: as §1, §2, §3, §4, §5, §6, §7, §8

[6] = target: T5, full-length wild type KDM4E (Homo sapiens, UniProt B2RXH2); test: as above; assay type: cell-based
T5 construct: HEK293T cells were transfected with full-length wild type KDM4B-E or their respective mutants; host or cells: HEK293T
Description: as §1, §2, §3, §4, §5, §6, §7, §8

T3 sequence (Q6B0I6 whole entry): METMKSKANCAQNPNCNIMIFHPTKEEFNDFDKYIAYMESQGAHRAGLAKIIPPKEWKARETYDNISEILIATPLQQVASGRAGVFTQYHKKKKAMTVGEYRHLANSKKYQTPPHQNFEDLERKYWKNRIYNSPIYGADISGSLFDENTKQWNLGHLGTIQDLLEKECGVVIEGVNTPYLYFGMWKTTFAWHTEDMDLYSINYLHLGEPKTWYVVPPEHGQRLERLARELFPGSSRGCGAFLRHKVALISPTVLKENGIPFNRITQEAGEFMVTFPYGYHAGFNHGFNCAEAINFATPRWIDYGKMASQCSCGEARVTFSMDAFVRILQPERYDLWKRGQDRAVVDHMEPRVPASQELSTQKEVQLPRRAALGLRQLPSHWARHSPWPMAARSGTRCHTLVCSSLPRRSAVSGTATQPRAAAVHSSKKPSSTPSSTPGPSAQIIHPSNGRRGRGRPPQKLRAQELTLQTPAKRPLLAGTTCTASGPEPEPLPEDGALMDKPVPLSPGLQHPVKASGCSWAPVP
T2 sequence (O94953 whole entry): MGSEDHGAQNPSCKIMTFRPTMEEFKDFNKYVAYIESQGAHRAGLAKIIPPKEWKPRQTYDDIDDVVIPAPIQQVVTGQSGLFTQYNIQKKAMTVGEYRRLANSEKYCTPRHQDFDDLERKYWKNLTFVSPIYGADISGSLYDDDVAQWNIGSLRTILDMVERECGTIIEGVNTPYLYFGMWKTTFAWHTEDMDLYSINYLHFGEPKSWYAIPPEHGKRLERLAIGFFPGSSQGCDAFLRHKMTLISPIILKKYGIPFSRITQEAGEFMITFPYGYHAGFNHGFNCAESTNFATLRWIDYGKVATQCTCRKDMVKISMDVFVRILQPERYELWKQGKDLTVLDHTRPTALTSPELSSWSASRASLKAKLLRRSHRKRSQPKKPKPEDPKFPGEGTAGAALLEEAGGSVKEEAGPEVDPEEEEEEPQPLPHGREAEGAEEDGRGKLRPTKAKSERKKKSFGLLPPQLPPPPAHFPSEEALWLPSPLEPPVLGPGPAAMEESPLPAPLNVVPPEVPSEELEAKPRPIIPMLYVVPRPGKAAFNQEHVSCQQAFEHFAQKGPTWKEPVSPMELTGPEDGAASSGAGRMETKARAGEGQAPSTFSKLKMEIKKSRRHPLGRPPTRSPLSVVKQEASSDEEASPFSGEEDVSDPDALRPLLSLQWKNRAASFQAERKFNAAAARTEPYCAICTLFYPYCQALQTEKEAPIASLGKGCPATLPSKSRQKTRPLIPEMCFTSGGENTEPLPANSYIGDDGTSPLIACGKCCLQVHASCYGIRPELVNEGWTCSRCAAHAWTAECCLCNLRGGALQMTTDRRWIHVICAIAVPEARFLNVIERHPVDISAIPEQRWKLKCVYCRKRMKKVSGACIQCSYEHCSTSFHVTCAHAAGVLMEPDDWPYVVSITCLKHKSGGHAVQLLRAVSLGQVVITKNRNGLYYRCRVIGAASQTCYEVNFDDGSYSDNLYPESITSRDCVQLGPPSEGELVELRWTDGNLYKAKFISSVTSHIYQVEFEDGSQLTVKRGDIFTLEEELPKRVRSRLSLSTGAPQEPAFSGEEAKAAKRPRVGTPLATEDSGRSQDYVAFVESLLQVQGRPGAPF
T4 sequence (Q9H3R0 whole entry): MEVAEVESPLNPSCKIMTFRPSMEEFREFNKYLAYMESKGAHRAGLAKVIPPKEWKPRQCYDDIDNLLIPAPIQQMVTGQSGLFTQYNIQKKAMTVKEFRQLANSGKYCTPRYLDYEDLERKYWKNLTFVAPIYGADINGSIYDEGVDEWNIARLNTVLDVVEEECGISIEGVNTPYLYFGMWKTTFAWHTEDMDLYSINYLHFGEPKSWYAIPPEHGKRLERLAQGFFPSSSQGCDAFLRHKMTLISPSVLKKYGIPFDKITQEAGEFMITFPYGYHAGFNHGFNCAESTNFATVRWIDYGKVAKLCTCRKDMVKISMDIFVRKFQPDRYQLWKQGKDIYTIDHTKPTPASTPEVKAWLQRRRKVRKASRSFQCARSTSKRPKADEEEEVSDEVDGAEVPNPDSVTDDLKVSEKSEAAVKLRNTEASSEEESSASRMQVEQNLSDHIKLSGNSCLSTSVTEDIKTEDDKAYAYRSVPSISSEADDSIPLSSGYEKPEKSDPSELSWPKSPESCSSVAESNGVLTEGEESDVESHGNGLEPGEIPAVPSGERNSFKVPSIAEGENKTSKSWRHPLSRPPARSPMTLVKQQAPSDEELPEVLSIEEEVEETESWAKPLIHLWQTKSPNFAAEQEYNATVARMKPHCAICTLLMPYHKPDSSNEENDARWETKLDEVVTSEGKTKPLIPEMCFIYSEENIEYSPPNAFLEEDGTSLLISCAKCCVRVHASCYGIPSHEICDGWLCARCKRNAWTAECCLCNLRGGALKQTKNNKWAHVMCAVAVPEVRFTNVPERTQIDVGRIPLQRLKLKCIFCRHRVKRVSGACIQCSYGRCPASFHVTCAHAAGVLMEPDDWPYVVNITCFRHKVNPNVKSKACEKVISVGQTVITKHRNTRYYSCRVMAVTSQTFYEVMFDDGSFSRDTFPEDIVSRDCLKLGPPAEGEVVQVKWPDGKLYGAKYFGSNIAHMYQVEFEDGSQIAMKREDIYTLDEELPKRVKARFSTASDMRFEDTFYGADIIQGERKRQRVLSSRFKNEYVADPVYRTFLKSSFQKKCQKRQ
T5 sequence (B2RXH2 whole entry): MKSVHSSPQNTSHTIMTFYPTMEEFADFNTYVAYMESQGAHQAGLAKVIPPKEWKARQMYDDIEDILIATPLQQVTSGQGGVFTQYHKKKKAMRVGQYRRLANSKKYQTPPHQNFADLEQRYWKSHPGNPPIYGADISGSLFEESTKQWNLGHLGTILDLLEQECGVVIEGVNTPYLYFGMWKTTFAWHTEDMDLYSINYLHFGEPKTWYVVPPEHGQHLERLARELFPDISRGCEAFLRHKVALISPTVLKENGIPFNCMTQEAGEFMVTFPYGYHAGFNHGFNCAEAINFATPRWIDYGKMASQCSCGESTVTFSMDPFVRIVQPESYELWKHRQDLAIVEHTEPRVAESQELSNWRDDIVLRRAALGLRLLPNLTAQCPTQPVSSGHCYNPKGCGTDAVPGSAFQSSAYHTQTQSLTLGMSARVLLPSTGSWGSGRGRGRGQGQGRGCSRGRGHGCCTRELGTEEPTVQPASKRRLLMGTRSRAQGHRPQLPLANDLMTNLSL
T1 sequence (Q6NS38 152-257 limits assumed): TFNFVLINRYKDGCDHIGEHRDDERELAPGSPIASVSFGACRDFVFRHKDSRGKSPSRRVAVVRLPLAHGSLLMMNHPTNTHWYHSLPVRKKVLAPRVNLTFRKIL

Structure (SMILES) | inhibition of ALKBH2 [1] | inhibition of TET2 [2] | inhibition of wild type KDM4B H3K9me3 demethylation [3] | inhibition of wild type KDM4D H3K9me3 demethylation [4] | inhibition of wild type KDM4C H3K9me3 demethylation [5] | inhibition of wild type KDM4E H3K9me3 demethylation [6]
CC(C)CC(NC(=O)C(=O)O)C(=O)O (stereo not drawn) [compound 6, N-oxalyl leucine] | No inhibition | No inhibition |  |  |  | 
CCCCCCCCOC(=O)c1ccc(O)c2ncccc12 [n-octyl IOX1] |  |  | Dose-dependent inhibition; also recorded: significantly reduced | Dose-dependent inhibition; also recorded: significantly reduced | Dose-dependent inhibition; also recorded: significantly reduced | Dose-dependent inhibition; also recorded: significantly reduced
